Assays:
Assay type in all cases: functional
SR = assay: Cytotoxicity against human SR cells assessed as growth inhibition after 48 hrs by sulforhodamine B assay; settings: for CC50: read-out: LC50 (the source's name)
A549 [1] = assay: Cytotoxicity against human A549/ATCC cells assessed as growth inhibition after 48 hrs by sulforhodamine B assay; settings: A549, 48 h
NCI-H460 [2] = assay: Cytotoxicity against human NCI-H460 cells assessed as growth inhibition after 48 hrs by sulforhodamine B assay; settings: NCI-H460, 48 h
OVCAR-4 = assay: Cytotoxicity against human OVCAR4 cells assessed as growth inhibition after 48 hrs by sulforhodamine B assay; settings: OVCAR-4, 48 h
786-0 [3] = assay: Cytotoxicity against human 786-0 cells assessed as growth inhibition after 48 hrs by sulforhodamine B assay; settings: 786-0, 48 h
RXF 393 [4] = assay: Cytotoxicity against human RXF393 cells assessed as growth inhibition after 48 hrs by sulforhodamine B assay; settings: RXF 393, 48 h
U-251 [5] = assay: Cytotoxicity against human U251 cells assessed as cell growth at 0.01 uM after 48 hrs by sulforhodamine B assay relative to control; settings: U-251, 48 h, read-out: Activity
SF-539 = assay: Cytotoxicity against human SF539 cells assessed as cell growth at 0.01 uM after 48 hrs by sulforhodamine B assay relative to control; settings: SF-539, 48 h, read-out: Activity
HCT-15 [6] = assay: Cytotoxicity against human HCT15 cells assessed as cell growth at 0.01 uM after 48 hrs by sulforhodamine B assay relative to control; settings: HCT-15, 48 h, read-out: Activity
A549 [7] = assay: Cytotoxicity against human A549/ATCC cells assessed as cell growth at 0.01 uM after 48 hrs by sulforhodamine B assay relative to control; settings: A549, 48 h, read-out: Activity
HL-60(TB) = assay: Cytotoxicity against human HL-60(TB) cells assessed as cell growth at 0.01 uM after 48 hrs by sulforhodamine B assay relative to control; settings: HL-60, 48 h, read-out: Activity
SN12C = assay: Cytotoxicity against human SN12C cells assessed as cell growth at 0.01 uM after 48 hrs by sulforhodamine B assay relative to control; settings: read-out: Activity
MDA-MB-468 = assay: Cytotoxicity against human MDA-MB-468 cells assessed as cell growth at 0.01 uM after 48 hrs by sulforhodamine B assay relative to control; settings: MDA-MB-468, 48 h, read-out: Activity
NCI-H522 [8] = assay: Cytotoxicity against human NCI-H522 cells assessed as cell growth at 0.1 uM after 48 hrs by sulforhodamine B assay relative to control; settings: NCI-H522, 48 h, read-out: Activity
U-251 [9] = assay: Cytotoxicity against human U251 cells assessed as cell growth at 0.1 uM after 48 hrs by sulforhodamine B assay relative to control; settings: U-251, 48 h, read-out: Activity
786-0 [10] = assay: Cytotoxicity against human 786-0 cells assessed as cell growth at 0.1 uM after 48 hrs by sulforhodamine B assay relative to control; settings: 786-0, 48 h, read-out: Activity
ACHN = assay: Cytotoxicity against human ACHN cells assessed as cell growth at 0.1 uM after 48 hrs by sulforhodamine B assay relative to control; settings: read-out: Activity
RXF 393 [11] = assay: Cytotoxicity against human RXF393 cells assessed as cell growth at 0.1 uM after 48 hrs by sulforhodamine B assay relative to control; settings: RXF 393, 48 h, read-out: Activity
NCI-H226 = assay: Cytotoxicity against human NCI-H226 cells assessed as cell growth at 1 uM after 48 hrs by sulforhodamine B assay relative to control; settings: NCI-H226, 48 h, read-out: Activity
NCI-H522 [12] = assay: Cytotoxicity against human NCI-H522 cells assessed as cell growth at 1 uM after 48 hrs by sulforhodamine B assay relative to control; settings: NCI-H522, 48 h, read-out: Activity
SW-620 = assay: Cytotoxicity against human SW620 cells assessed as cell growth at 1 uM after 48 hrs by sulforhodamine B assay relative to control; settings: SW-620, 48 h, read-out: Activity
SK-MEL-5 = assay: Cytotoxicity against human SK-MEL-5 cells assessed as cell growth at 1 uM after 48 hrs by sulforhodamine B assay relative to control; settings: SK-MEL-5, 48 h, read-out: Activity
IGROV-1 = assay: Cytotoxicity against human IGROV1 cells assessed as cell growth at 1 uM after 48 hrs by sulforhodamine B assay relative to control; settings: IGROV-1, 48 h, read-out: Activity
NCI-H460 [13] = assay: Cytotoxicity against human NCI-H460 cells assessed as cell growth at 10 uM after 48 hrs by sulforhodamine B assay relative to control; settings: NCI-H460, 48 h, read-out: Activity
HCT-15 [14] = assay: Cytotoxicity against human HCT15 cells assessed as cell growth at 10 uM after 48 hrs by sulforhodamine B assay relative to control; settings: HCT-15, 48 h, read-out: Activity
M14 [15] = assay: Cytotoxicity against human M14 cells assessed as cell growth at 10 uM after 48 hrs by sulforhodamine B assay relative to control; settings: M14, 48 h, read-out: Activity
OVCAR-3 = assay: Cytotoxicity against human OVCAR3 cells assessed as cell growth at 10 uM after 48 hrs by sulforhodamine B assay relative to control; settings: OVCAR-3, 48 h, read-out: Activity
OVCAR-5 = assay: Cytotoxicity against human OVCAR5 cells assessed as cell growth at 10 uM after 48 hrs by sulforhodamine B assay relative to control; settings: OVCAR-5, 48 h, read-out: Activity
DU-145 = assay: Cytotoxicity against human DU145 cells assessed as cell growth at 10 uM after 48 hrs by sulforhodamine B assay relative to control; settings: DU-145, 48 h, read-out: Activity
Hs-578T [16] = assay: Cytotoxicity against human Hs 578T cells assessed as cell growth at 10 uM after 48 hrs by sulforhodamine B assay relative to control; settings: read-out: Activity
CCRF-CEM = assay: Cytotoxicity against human CCRF-CEM cells assessed as cell growth at 100 uM after 48 hrs by sulforhodamine B assay relative to control; settings: read-out: Activity
COLO 205 = assay: Cytotoxicity against human COLO205 cells assessed as cell growth at 100 uM after 48 hrs by sulforhodamine B assay relative to control; settings: COLO 205, 48 h, read-out: Activity
HT-29 = assay: Cytotoxicity against human HT-29 cells assessed as cell growth at 100 uM after 48 hrs by sulforhodamine B assay relative to control; settings: HT-29, 48 h, read-out: Activity
SF-268 = assay: Cytotoxicity against human SF268 cells assessed as cell growth at 100 uM after 48 hrs by sulforhodamine B assay relative to control; settings: SF-268, 48 h, read-out: Activity
M14 [17] = assay: Cytotoxicity against human M14 cells assessed as cell growth at 100 uM after 48 hrs by sulforhodamine B assay relative to control; settings: M14, 48 h, read-out: Activity
Hs-578T [18] = assay: Cytotoxicity against human Hs 578T cells assessed as cell growth at 100 uM after 48 hrs by sulforhodamine B assay relative to control; settings: read-out: Activity

Structure (SMILES): COc1ccc(C(=O)/C=C/c2cc(-c3cc(OC)c(OC)c(OC)c3)n[nH]2)cc1
- TGI (SR): 23.9 µM
- CC50 (SR): > 100 µM
- LC50 (concentration giving 50% net cell kill) (A549 [1]): > 100 µM
- LC50 (NCI-H460 [2]): 8.18 µM
- TGI (NCI-H460 [2]): 3.75 µM
- LC50 (OVCAR-4): > 100 µM
- TGI (OVCAR-4): 8.32 µM
- TGI (786-0 [3]): 4.13 µM
- LC50 (concentration killing 50% of cells) (RXF 393 [4]): 5.17 µM
- TGI (RXF 393 [4]): 2.56 µM
- growth at 0.01 µM (U-251 [5]): 97%
- growth at 0.01 µM (SF-539): 97%
- growth at 0.01 µM (HCT-15 [6]): 99%
- growth at 0.01 µM (A549 [7]): 98%
- growth at 0.01 µM (HL-60(TB)): 115%
- growth at 0.01 µM (SN12C): 99%
- growth at 0.01 µM (MDA-MB-468): 89%
- growth at 0.1 µM (NCI-H522 [8]): 87%
- growth at 0.1 µM (U-251 [9]): 97%
- growth at 0.1 µM (786-0 [10]): 96%
- growth at 0.1 µM (ACHN): 102%
- growth at 0.1 µM (RXF 393 [11]): 90%
- growth at 1 µM (NCI-H226): 92%
- growth at 1 µM (NCI-H522 [12]): 75%
- growth at 1 µM (SW-620): 82%
- growth at 1 µM (SK-MEL-5): 93%
- growth at 1 µM (IGROV-1): 101%
- growth at 10 µM (NCI-H460 [13]): -63%
- growth at 10 µM (HCT-15 [14]): -41%
- growth at 10 µM (M14 [15]): -44%
- growth at 10 µM (OVCAR-3): -72%
- growth at 10 µM (OVCAR-5): -70%
- growth at 10 µM (DU-145): -93%
- growth at 10 µM (Hs-578T [16]): 13%
- growth at 100 µM (CCRF-CEM): -16%
- growth at 100 µM (COLO 205): -81%
- growth at 100 µM (HT-29): -19%
- growth at 100 µM (SF-268): -37%
- growth at 100 µM (M14 [17]): -7%
- growth at 100 µM (Hs-578T [18]): 5%

Structure (SMILES): COc1ccc(-c2cc(/C=C/C(=O)c3cc(OC)c(OC)c(OC)c3)[nH]n2)cc1OC
- GI50 (SR): 0.2 µM
- TGI (SR): 2.26 µM
- CC50 (SR): > 100 µM
- GI50 (A549 [1]): 2.39 µM
- LC50 (concentration giving 50% net cell kill) (A549 [1]): 62.4 µM
- TGI (A549 [1]): 9.34 µM
- GI50 (NCI-H460 [2]): 1.04 µM
- LC50 (NCI-H460 [2]): 29.9 µM
- TGI (NCI-H460 [2]): 3.6 µM
- GI50 (OVCAR-4): 1.62 µM
- TGI (OVCAR-4): 7.17 µM
- GI50 (786-0 [3]): 1.5 µM
- LC50 (786-0 [3]): 5.6 µM
- TGI (786-0 [3]): 2.9 µM
- GI50 (RXF 393 [4]): 1.53 µM
- LC50 (concentration killing 50% of cells) (RXF 393 [4]): 6.51 µM
- TGI (RXF 393 [4]): 3.16 µM
- growth at 0.01 µM (U-251 [5]): 99%
- growth at 0.01 µM (SF-539): 95%
- growth at 0.01 µM (HCT-15 [6]): 99%
- growth at 0.01 µM (A549 [7]): 101%
- growth at 0.01 µM (HL-60(TB)): 98%
- growth at 0.01 µM (SN12C): 98%
- growth at 0.01 µM (MDA-MB-468): 98%
- growth at 0.1 µM (NCI-H522 [8]): 86%
- growth at 0.1 µM (U-251 [9]): 92%
- growth at 0.1 µM (786-0 [10]): 91%
- growth at 0.1 µM (ACHN): 91%
- growth at 0.1 µM (RXF 393 [11]): 102%
- growth at 1 µM (NCI-H226): 73%
- growth at 1 µM (NCI-H522 [12]): 71%
- growth at 1 µM (SW-620): 70%
- growth at 1 µM (SK-MEL-5): 87%
- growth at 1 µM (IGROV-1): 93%
- growth at 10 µM (NCI-H460 [13]): -41%
- growth at 10 µM (HCT-15 [14]): -41%
- growth at 10 µM (M14 [15]): -70%
- growth at 10 µM (OVCAR-3): -85%
- growth at 10 µM (OVCAR-5): -47%
- growth at 10 µM (DU-145): -55%
- growth at 10 µM (Hs-578T [16]): 9%
- growth at 100 µM (CCRF-CEM): -13%
- growth at 100 µM (COLO 205): -88%
- growth at 100 µM (HT-29): -66%
- growth at 100 µM (SF-268): -72%
- growth at 100 µM (M14 [17]): -74%
- growth at 100 µM (Hs-578T [18]): -16%

— ChEMBL document CHEMBL4138123, “Design, synthesis and biological evaluation of novel pyrazolochalcones as potential modulators of PI3K/Akt/mTOR pathway and inducers of apoptosis in breast cancer cells” (Eur J Med Chem, 2017)
